Source: patent US6333340A, “Small molecule sulfonamides for vision and memory disorders” (Gpi Nil Holdings, Inc., priority 1998, dated 2001)
Values joined by “and” are separate entries in the source; they are usually repeats but may differ in a detail not shown here. Equal values may be shown once.

Legend:
CNS = experiment: Sprouting within the CNS following partial deafferentation; format: in vivo
optic nerve myelin = experiment: Optic nerve transection, myelin basic protein immunohistochemistry of optic nerve stumps; format: in vivo, Sprague Dawley rats; settings: for Proximal optic nerve myelin basic protein Density, % recovery: SEM
Excerpt: All eyes and optic nerves stumps were removed.
^5 determined from 20X analysis of % areal coverage of optic nerve
^6 shrinkage determined by comparing cross sectional area to sham
control, myelin, leves determined by multiplying cross sectional area by […]

retina = experiment: Streptozotocin induced diabetes, retinal neovascularization and neuron loss (cresyl violet); format: in vivo
peripheral nerve = experiment: Peripheral nerve regeneration; settings: in vivo
[1] = tested on: streptozotocin-induced diabetic rat; experiment: Streptozotocin-induced diabetic sensory neuropathy, hot plate and tail flick tests; format: in vivo, Male Wistar rats; settings: 10 mg/kg s.c., 6 weeks
Experimental: The procedure involved using Male Wistar rats which were given a single injection of streptozotocin (65 mg/kg i.v.). Blood glucose levels were determined weekly for the first three weeks and on the last week of the experiment. Animals were evaluated weekly for signs of sensory neuropathy using the conventional hot plate and tail flick apparatus test procedures.

[2] = Clearance (comments of Table V); format: in vitro ADME
retinal ganglion cells [3] = experiment: Optic nerve transection, ganglion cell survival and axonal dying back (Example 16); format: in vivo, Sprague Dawley rats; settings: 10 mg/kg/day s.c. for 28 days; 90 days after transection
Excerpt: Transection of the mammalian optic nerve results in a brief period of abortive regeneration, but the majority of axotomized neurons die and the axons from many persisting ganglion cells die back beyond the optic nerve head.

retinal ganglion cells [4] = experiment: Retinal ischemia, retinal ganglion cell degeneration; format: in vivo, adult rats; settings: 10 mg/kg, s.c. 1 hour prior to ischemia and 10 mg/kg/day next four days; 28 days
Excerpt: Retinal ganglion cells were retrogradely labeled in adult rats by bilateral injection of fluorogold in their lateral geniculate nuclei. Labeled ganglion cells in the normal rat retina appear as white profiles against the dark background (FIG. 1A). Complete retinal ischemia was produced by infusing normal saline solution into the retinal vitreous cavity of each eye until the intraocular pressure exceeded arterial blood pressure. 28 days after the ischemic episode extensive degeneration of retinal ganglion cell was evidenced by massive reduction in the density of fluorogold labeled cells (FIG. 1B).

[5] = tested on: optic nerve axons and myelin; experiment: Retinal ischemia, degeneration of optic nerve axons and myelin (toluidine blue); format: in vivo, rat
aged mice = experiment: Morris watermaze, spatial learning and memory in aged mice; format: in vivo, male C57BL/6N-Nia mice; settings: 10mg/kg daily
Excerpt: The Morris watermaze is widely used for assessing spatial memory formation and retention in experimental animals. The test depends on the animal's ability to utilize spatial visual information in order to locate a submerged escape platform in a water tank. It is important that the tank itself be as devoid of specific visual features as possible--thus, it is always circular in shape, the sides are kept smooth and in uniform dull colors, and the water is rendered opaque with nontoxic watercolor pigment or powdered milk. This is to ensure that the animal navigates only by the use of more distant visual cues, or by the use of intra-maze cues specifically provided by the experimenter. The tank is filled to a level which forces the animal to swim actively. Normal mice and rats react […] to the swimming part of the test and will climb onto, and remain on, an escape platform from which they are removed to a heated resting cage. If the platform is visible (i.e. above the surface), animals placed in the tank will quickly learn to home in on the platform and climb out onto it. Testing with a visible platform will also ensure that the experimental animals are not blind and show sufficient motivation and stamina to perform the task, which can be important in experiments involving aged rodents. If the platform is invisible (i.e. submerged just below the surface), normal animals learn to use distant visual cues in the test room for orientation in the test tank, and, when placed in the tank, will quickly home in on the approximate location of the platform and circle in that area until the platform is found. The animals' path, speed, and swim time are tracked with a ceiling camera for later computerized analysis. Over the course of several successive trials, spatial learning can therefore be defined as a drop of distance swum, or time elapsed, from placement in the tank until escape onto the invisible platform. The test can be adapted to assess several aspects of spatial memory: a) acquisition of a cued task, where the animal's ability to link one visual cue directly with the escape platform depends on cortical function (i.e. a ball is suspended over the escape platform and the animal learns to follow this cue to find the platform); b) acquisition of a spatial task, where the animal's ability to learn the location of a submerged escape platform based on a combination of distant visual cues is dependent upon hippocampal function (i.e. the animal learns to triangulate its position in the tank by visually aligning the paper-tower dispenser with the door and ceiling lamp); c) retention of a successfully acquired spatial task, which is predominantly dependant on cortical function (i.e. the animal must remember the spatial location of the platform over several weeks); d) a hippocampus-dependant reversal task where the animals must reacquire a new spatial platform location (i.e. the platform is moved to a new location between swim trials and the animal must abandon its previous search strategy and acquire a new one). These different modifications of the Morris watermaze procedure can be applied in sequence to the same set of experimental animals and allow for a thorough characterization of their spatial memory performance and its decline with normal ageing. […]

[6] = 14 days treatment, 90 days after ONT
[7] = 28 days treatment, 90 days after ONT
[8] = distal stump, first 28 days after transection
[9] = proximal stump, first 28 days after transection
[10] = 28 day treatment beginning 8 weeks after onset of diabetes
[11] = 28 days after 1 hour retinal ischemic episode
[12] = retention after 3 weeks of dosing

CCC(C)(C)C(=O)C(=O)N1CCC[C@H]1C(=O)OCCCc1cccnc1 [GPI 1046]
sprouting within the CNS (CNS): stimulate sprouting within the CNS following partial deafferentation | Distal optic nerve myelin basic protein Density, loss (optic nerve myelin; [6]): 47% | Proximal optic nerve myelin basic protein Density, % recovery (optic nerve myelin; [6]): 1.6% and 1.6 ± 3.0% | Distal optic nerve, shrinkage (optic nerve myelin; 14 days treatment, 90 days after ONT, cross sectional area vs sham control): 33% | Distal optic nerve myelin preservation (myelin levels of normal) (optic nerve myelin; [7]): ~ 99% and 99% | Distal optic nerve, less shrinkage (optic nerve myelin; [7]): 56% | Proximal optic nerve myelin basic protein Density, % recovery (optic nerve myelin; [7]): 70% and 70 ± 6.3% | density of degenerating myelin figures (optic nerve myelin; distal stump, first 14 days after transection): remained high | density of myelin (optic nerve myelin; distal stump, first 14 days after transection, in words): slightly increase the density of myelin | density of degenerating myelin figures (optic nerve myelin; [8]): decreased the density of degenerating myelin figures | fascicular pattern of myelin labeling (optic nerve myelin; [8]): dramatic protection of the fascicular pattern of myelin labeling | shrinkage of the distal stump (optic nerve myelin; first 14 days after transection, in words): did not protect against shrinkage of the distal stump | cross sectional shrinkage of the distal stump (optic nerve myelin; first 28 days after transection, in words): prevented cross sectional shrinkage of the distal stump | pattern of myelin degeneration (optic nerve myelin; proximal stump, first 14 days after transection): did not alter the pattern of myelin degeneration | density of degenerating myelin figures (optic nerve myelin; [9]): decreased the density of degenerating myelin figures | fascicular staining pattern for myelin basic protein (optic nerve myelin; [9]): dramatic preservation of the fascicular staining pattern for myelin basic protein | neovascularization in the PR, ONL, OPL and INL (retina; [10]): reduced neovascularization | protection against neuronal loss in the ONL (retina; [10]): did not appear to protect against neuronal loss in the ONL | loss of neurons in INL and GCL (retina; 28 day treatment, compared to streptozotocin/vehicle): appeared to decrease the loss of neurons in both the INL and GCL | peripheral nerve regeneration (peripheral nerve): enhance peripheral nerve regeneration | behavioral sequelae of diabetic sensory neuropathy [1]: ameliorates the behavioral sequelae of diabetic sensory neuropathy | latency, hot plate [1]: improvement in latency | latency, tail flick [1]: improvement in latency | Clearance [2]: 3.8 µL/min | perikaryal neuroprotection (retinal ganglion cells [3]): moderate degree of perikaryal neuroprotection | preservation of axons of protected neurons in the proximal stump (retinal ganglion cells [3]): preserved the axons of virtually all protected neurons | sparing of the ganglion cell population (retinal ganglion cells [3]): 25% | protection of the vulnerable ganglion cell population (retinal ganglion cells [4]): noticeable protection of a large proportion of the vulnerable ganglion cell population | density of degenerating myelin figures [5, 11]: dramatically decreased the density of degenerating myelin figures | protection of optic nerve axons from degeneration [5, 11]: protected the majority of optic nerve axons from degeneration | protection of optic nerve element from ischemic degeneration ([5]; retinal ischemia): dramatic protection of optic nerve element from ischemic degeneration | spatial memory performance of mice with age-related spatial memory impairments (aged mice; systemic): significantly enhanced spatial memory performance | P, retention phase, young vs aged impaired GPI-1046 (aged mice; F1.69 =3.09): 0.08 | P, retention testing, aged impaired-vehicle vs aged impaired GPI-1046 (aged mice; F1.69 =8.11): 0.006 | retention phase, difference between young and aged impaired GPI-1046 groups (aged mice; [12]): no longer any statistically significant difference | retention testing, aged impaired-vehicle compared with aged impaired GPI-1046 (aged mice; [12]): "aged impaired-vehicle" treated animals performed significantly poorer than "aged impaired - GPI-1046"
